Laboratory results: PMC10174618, “Monoterpenoid aryl hydrocarbon receptor allosteric antagonists protect against ultraviolet skin damage in female mice” (Nature Communications, 2023)

Key:
Assay in all cases: biochemical
Design in all cases: KINOMEscan scanMAX active site-directed competition binding assay, percent of control, 468 kinases
Conditions in all cases: competition binding, percent of control
CAMKK1 = CAMKK1 (Homo sapiens, UniProt Q8N5S9)
How it was run: (§1)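 Single-concentration screen (100 μM S-carvone) in a competition binding panel of 468 human kinases (KINOMEscan scanMAX); results given as percent of control, hit cutoff 35%.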

CDK7 = CDK7 (Homo sapiens, UniProt P50613)
How it was run: as §1

CDK9 = CDK9 (Homo sapiens, UniProt P50750)
How it was run: as §1

CSF1R-autoinhibited = CSF1R-autoinhibited (Homo sapiens, UniProt P07333)
How it was run: as §1

CSNK1A1L = CSNK1A1L (Homo sapiens, UniProt Q8N752)
How it was run: as §1

DYRK1A = DYRK1A (Homo sapiens, UniProt Q13627)
How it was run: as §1

EIF2AK1 = EIF2AK1 (Homo sapiens, UniProt Q9BQI3)
How it was run: as §1

FGFR1 = FGFR1 (Homo sapiens, UniProt P11362)
How it was run: as §1

FLT1 = FLT1 (Homo sapiens, UniProt P17948)
How it was run: as §1

MRCKB = biological target: T1, MRCKB (Homo sapiens, UniProt Q9Y5S2)
T1 construct: gene CDC42BPB
How it was run: as §1

MST1 = biological target: T2, MST1 (Homo sapiens, UniProt Q13043)
T2 construct: gene STK4
How it was run: as §1

NEK6 = NEK6 (Homo sapiens, UniProt Q9HC98)
How it was run: as §1

PAK7 = biological target: T3, PAK7 (Homo sapiens, UniProt Q9P286)
T3 construct: gene PAK5
How it was run: as §1

PIK3CA = PIK3CA (Homo sapiens, UniProt P42336)
How it was run: as §1

PIK3CB = PIK3CB (Homo sapiens, UniProt P42338)
How it was run: as §1

PIK3CG = PIK3CG (Homo sapiens, UniProt P48736)
How it was run: as §1

RET(V804L) = RET(V804L) (Homo sapiens, UniProt P07949, V804L)
How it was run: as §1

RIPK1 = RIPK1 (Homo sapiens, UniProt Q13546)
How it was run: as §1

ROCK1 = ROCK1 (Homo sapiens, UniProt Q13464)
How it was run: as §1

[1] = biological target: T4, RPS6KA4(Kin.Dom.2-C-terminal) (Homo sapiens, UniProt O75676)
T4 construct: Kin.Dom.2-C-terminal
How it was run: as §1

SIK2 = SIK2 (Homo sapiens, UniProt Q9H0K1)
How it was run: as §1

TIE2 = biological target: T5, TIE2 (Homo sapiens, UniProt Q02763)
T5 construct: gene TEK
How it was run: as §1

PIK3CG, sequence (P48736 whole entry): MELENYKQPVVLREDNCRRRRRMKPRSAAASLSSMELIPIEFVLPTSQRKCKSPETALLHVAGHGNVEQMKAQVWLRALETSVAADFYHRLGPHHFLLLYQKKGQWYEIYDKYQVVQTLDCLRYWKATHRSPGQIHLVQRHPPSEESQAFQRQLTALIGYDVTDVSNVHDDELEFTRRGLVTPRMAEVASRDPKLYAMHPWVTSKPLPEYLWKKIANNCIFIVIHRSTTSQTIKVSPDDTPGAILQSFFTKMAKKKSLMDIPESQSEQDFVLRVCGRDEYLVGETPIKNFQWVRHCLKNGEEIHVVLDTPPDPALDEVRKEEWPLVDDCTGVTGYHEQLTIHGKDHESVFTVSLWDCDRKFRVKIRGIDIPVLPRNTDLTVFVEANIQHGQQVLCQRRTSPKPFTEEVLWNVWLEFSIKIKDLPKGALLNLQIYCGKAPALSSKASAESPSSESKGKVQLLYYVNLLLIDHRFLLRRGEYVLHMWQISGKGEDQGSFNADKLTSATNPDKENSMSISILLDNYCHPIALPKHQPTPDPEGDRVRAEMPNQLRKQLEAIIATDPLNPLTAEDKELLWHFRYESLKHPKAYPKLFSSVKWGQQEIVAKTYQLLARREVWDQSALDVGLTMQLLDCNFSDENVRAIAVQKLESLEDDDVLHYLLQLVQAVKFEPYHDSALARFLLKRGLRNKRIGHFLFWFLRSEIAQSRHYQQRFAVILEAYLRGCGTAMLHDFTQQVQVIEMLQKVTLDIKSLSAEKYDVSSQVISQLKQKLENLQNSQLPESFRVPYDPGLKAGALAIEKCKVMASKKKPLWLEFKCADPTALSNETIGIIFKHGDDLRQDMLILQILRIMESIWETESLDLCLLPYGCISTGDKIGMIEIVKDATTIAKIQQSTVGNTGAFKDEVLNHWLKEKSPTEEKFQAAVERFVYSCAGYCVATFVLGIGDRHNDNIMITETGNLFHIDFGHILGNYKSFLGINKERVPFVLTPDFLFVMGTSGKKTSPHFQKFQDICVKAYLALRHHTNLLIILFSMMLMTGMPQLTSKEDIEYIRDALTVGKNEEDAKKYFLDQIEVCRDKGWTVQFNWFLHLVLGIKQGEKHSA
NEK6, sequence (Q9HC98 whole entry): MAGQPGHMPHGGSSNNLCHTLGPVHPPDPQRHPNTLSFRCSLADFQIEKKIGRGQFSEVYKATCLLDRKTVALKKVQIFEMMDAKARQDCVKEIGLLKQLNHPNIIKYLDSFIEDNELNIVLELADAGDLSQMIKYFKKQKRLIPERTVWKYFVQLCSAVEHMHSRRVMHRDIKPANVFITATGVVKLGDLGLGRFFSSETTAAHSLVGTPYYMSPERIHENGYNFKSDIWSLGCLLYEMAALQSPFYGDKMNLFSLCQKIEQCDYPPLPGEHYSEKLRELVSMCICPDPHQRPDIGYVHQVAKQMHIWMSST
EIF2AK1, sequence (Q9BQI3 whole entry): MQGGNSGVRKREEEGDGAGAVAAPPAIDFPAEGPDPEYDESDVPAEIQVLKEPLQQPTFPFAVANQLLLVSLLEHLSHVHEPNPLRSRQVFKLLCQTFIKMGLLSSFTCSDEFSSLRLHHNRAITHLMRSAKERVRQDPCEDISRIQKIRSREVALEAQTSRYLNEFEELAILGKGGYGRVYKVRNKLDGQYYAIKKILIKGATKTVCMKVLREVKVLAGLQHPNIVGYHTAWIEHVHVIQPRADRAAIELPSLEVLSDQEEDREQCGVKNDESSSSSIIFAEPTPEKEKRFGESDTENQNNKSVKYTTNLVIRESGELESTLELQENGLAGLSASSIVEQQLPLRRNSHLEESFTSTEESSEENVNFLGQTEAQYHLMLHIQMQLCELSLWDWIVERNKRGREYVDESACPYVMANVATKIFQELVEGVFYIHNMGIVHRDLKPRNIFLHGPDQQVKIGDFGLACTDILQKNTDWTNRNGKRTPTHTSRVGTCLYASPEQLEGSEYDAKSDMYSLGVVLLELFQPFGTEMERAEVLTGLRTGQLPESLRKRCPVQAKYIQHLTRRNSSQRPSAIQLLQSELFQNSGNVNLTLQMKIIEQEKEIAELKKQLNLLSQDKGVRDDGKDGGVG
PIK3CA, sequence (P42336 whole entry): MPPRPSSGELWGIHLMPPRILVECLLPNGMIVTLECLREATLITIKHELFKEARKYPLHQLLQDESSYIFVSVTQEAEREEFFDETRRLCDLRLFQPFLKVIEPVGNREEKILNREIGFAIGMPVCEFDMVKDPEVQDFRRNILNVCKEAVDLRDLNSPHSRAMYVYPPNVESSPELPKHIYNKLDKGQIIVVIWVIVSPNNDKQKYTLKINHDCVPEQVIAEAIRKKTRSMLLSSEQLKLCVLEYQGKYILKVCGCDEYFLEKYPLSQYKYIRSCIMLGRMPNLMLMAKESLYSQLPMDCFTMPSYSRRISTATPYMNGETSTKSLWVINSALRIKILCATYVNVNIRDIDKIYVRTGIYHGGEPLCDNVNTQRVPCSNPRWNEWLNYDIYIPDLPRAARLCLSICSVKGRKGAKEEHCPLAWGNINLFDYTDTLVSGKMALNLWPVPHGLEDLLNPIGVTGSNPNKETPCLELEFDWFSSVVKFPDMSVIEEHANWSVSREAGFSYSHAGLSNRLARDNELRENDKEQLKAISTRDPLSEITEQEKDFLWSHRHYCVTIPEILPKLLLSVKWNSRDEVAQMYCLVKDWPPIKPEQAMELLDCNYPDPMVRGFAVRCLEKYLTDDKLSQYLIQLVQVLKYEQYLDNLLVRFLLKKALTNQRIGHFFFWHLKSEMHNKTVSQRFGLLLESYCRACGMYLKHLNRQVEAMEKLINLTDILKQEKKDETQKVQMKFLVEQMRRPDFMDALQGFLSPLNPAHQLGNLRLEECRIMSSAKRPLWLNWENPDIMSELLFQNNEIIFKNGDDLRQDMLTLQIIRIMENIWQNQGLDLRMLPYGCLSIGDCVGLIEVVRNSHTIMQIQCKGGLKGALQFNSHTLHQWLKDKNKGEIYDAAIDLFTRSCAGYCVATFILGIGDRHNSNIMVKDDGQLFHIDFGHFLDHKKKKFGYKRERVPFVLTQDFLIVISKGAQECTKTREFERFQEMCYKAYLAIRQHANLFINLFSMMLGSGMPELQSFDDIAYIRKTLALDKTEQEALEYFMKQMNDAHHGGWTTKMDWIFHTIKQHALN
T4 sequence (O75676 whole entry): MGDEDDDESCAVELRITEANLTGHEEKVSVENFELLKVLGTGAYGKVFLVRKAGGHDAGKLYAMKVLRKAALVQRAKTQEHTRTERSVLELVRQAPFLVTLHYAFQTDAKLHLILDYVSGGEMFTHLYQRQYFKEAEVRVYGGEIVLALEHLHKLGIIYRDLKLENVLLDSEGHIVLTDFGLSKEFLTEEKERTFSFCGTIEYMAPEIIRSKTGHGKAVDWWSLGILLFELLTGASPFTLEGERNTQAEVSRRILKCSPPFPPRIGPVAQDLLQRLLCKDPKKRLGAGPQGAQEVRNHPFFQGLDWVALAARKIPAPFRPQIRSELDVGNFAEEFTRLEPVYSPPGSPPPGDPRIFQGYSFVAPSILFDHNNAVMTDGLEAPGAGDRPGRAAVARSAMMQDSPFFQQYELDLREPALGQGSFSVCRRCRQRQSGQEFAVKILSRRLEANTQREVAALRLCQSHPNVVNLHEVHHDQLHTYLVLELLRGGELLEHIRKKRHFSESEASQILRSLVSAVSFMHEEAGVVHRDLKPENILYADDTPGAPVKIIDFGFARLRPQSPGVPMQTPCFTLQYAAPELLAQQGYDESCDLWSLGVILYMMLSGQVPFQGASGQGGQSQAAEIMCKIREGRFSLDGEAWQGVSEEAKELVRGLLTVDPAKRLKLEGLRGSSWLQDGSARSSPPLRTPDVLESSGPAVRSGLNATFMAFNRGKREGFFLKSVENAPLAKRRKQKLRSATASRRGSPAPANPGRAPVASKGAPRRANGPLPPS
RET(V804L), sequence (P07949 whole entry V804L): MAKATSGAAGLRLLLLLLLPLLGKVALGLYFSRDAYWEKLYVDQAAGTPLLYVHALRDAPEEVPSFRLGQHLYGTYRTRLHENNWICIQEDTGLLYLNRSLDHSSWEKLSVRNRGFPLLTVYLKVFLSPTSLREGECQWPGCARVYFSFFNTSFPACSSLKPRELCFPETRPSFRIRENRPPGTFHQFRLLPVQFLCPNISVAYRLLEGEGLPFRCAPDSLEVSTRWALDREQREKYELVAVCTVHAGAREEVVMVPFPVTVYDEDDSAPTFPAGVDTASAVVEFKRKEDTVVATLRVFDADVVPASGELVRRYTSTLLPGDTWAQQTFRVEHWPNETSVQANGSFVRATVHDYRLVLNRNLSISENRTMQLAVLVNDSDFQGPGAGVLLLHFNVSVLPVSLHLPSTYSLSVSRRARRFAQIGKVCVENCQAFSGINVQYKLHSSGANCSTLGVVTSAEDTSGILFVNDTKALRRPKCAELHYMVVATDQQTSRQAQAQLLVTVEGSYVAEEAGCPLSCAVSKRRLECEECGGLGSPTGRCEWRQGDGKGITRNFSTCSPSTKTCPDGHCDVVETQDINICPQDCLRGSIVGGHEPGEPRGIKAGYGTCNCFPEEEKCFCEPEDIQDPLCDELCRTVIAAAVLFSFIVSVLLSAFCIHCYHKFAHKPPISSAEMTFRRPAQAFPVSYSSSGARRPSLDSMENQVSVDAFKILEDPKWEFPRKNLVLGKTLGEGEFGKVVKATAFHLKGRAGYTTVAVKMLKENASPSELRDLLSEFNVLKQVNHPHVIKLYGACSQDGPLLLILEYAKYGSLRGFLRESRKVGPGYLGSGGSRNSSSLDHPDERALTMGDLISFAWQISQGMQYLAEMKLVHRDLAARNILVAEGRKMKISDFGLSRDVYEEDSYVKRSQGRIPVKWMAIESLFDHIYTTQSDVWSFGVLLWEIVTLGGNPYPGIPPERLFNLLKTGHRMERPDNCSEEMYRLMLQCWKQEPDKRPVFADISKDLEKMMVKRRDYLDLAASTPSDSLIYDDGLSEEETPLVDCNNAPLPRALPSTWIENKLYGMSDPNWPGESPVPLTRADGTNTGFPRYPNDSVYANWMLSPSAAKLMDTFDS

remaining binding at 100 µM (CAMKK1): 94%
remaining binding at 100 µM (CDK7): 65%
remaining binding at 100 µM (CDK9): 85%
remaining binding at 100 µM (CSF1R-autoinhibited): 73%
remaining binding at 100 µM (CSNK1A1L): 85%
remaining binding at 100 µM (DYRK1A): 91%
remaining binding at 100 µM (EIF2AK1): 75%
remaining binding at 100 µM (FGFR1): 92%
remaining binding at 100 µM (FLT1): 91%
remaining binding at 100 µM (MRCKB): 91%
remaining binding at 100 µM (MST1): 81%
remaining binding at 100 µM (NEK6): 84%
remaining binding at 100 µM (PAK7): 100%
remaining binding at 100 µM (PIK3CA): 79%
remaining binding at 100 µM (PIK3CB): 88%
remaining binding at 100 µM (PIK3CG): 69%
remaining binding at 100 µM (RET(V804L)): 87%
remaining binding at 100 µM (RIPK1): 87%
remaining binding at 100 µM (ROCK1): 100%
remaining binding at 100 µM [1]: 75%
remaining binding at 100 µM (SIK2): 76%
remaining binding at 100 µM (TIE2): 84%
SMILES: C=C(C)[C@H]1CC=C(C)C(=O)C1 [S-carvone]
